Patent US12193456B2, “Early life nutrition” (DSM IP ASSETS B.V., priority 2019, dated 2025)

Key:
calves = assay: Methane emissions from calves measured using the GreenFeed system after early-life supplementation; format: in vivo, calves (Holstein, Montbéliarde, Holstein×Montbéliarde); conditions: for methane emissions: n = 10
Source text: The methane emissions respectively methane reductions as referred to herein can be measured in individual animals in metabolic chambers by methods known in the art (Grainger et al., 2007 J. Dairy Science; 90: 2755-2766). Moreover, it can also be assessed at barn level by an emerging technology using laser beam (McGinn et al., 2009, Journal of Environ-mental Quality; 38: 1796-1802). Alternatively, methane produced by a ruminant can also be assessed with the GreenFeed system (C-Lock, Rapid City, SD USA), which method is preferred.
(§1) At birth 18 female Holstein (n=12), Montbéliarde (n=4) and Holstein×Montbéliarde (n=2) calves were randomly assigned to either a treatment group (3 mg 3-NOP (active)/kg BW) or control group (placebo supplement i.e. without 3-NOP but with silica and propylene glycol). 3-NOP was supplemented in the form of a 3-NOP powdered formulation (10 wt.-% of 3-NOP admixed with silica and propylene glycol) such that breed distribution and birthweight were balanced across groups. Treatment was administered daily from birth until three weeks post-weaning (week 14) (admixed in a small volume of water and delivered by an oral gavage). Calves were weighed weekly. Milk and concentrate intake prior to weaning was recorded using automated feeders. Animals were group housed in a single pen following weaning. Samples of rumen liquid were collected at week 1, 4, 11, 14, 23 and 60 weeks of life and DNA from these samples of rumen liquid content were extracted and subjected to Illumina MiSeq sequencing. Methane emissions from the calves were measured using the GreenFeed system (C-Lock, Rapid City, SD USA) from weaning at week 11 to week 23 and later from week 56 to 60 of life.

[1] = Calf physiological parameters (bodyweight, average daily gain); format: in vivo, calves (Holstein, Montbéliarde, Holstein×Montbéliarde); conditions: for effect on host animal performance (in words): early life treatment, birth to week 14
Method: as §1

- Bodyweight (BW) of calves ([1]; age 0 weeks, treatment group n = 10): 41.6 kg
- Bodyweight (BW) of calves ([1]; age 11 weeks, treatment group n = 10): 102.2 kg
- Bodyweight (BW) of calves ([1]; age 14 weeks, treatment group n = 10): 119.5 kg
- Bodyweight (BW) of calves ([1]; age 17 weeks, treatment group n = 10): 134.9 kg
- Bodyweight (BW) of calves ([1]; age 20 weeks, treatment group n = 10): 151.8 kg
- Bodyweight (BW) of calves ([1]; age 23 weeks, treatment group n = 10): 189.5 kg
- Bodyweight (BW) of calves ([1]; age 56 to 60 weeks, treatment group n = 10): 339 kg
- effect on host animal performance (in words) [1]: no detrimental effects
- Average Daily Gain (ADG) ([1]; from week 0 to 23 weeks of life, treatment group n = 10): 0.79 kg/day
Compound: O=[N+]([O-])OCCCO [3-nitrooxypropanol, 3-Nitrooxypropanol]
- methane emissions of treated animals (in words) (calves; after 60 weeks of age, supplementation from birth until 14 weeks of age): lower methane emissions
- methane emissions (calves; age 11 weeks (weaning), during daily supplementation, 3 mg 3-NOP/kg BW oral gavage from birth): 45.0 g/day
- methane emissions (calves; age 14 weeks, end of daily supplementation, 3 mg 3-NOP/kg BW oral gavage from birth): 63.4 g/day
- methane emissions (calves; age 17 weeks, no supplementation (stopped week 14)): 68.2 g/day
- methane emissions (calves; age 20 weeks, no supplementation (stopped week 14)): 88.9 g/day
- methane emissions (calves; age 23 weeks, no supplementation (stopped week 14)): 97.13 g/day
- methane emissions (calves; age 56 to 60 weeks, no supplementation (stopped week 14)): 193.0 g/day
- overall reduction in methane emissions (g CH4/d) (calves; throughout the post-weaning period (week 11 to 23), vs control, P=0.03, treatment ceased three weeks post-weaning): 11.6%
- overall reduction in methane emissions (calves; weeks 56 to 60 of life, vs control, P<0.05, no supplementation since week 14): about 19%
- effect on host animal performance (in words) ([1]; listed as 3-NOP): no adverse effect on performance
